From article PMC11359040, “Long-Circulating and Brain-Targeted Liposomes Loaded with Isoliquiritigenin: Formation, Characterization, Pharmacokinetics, and Distribution” (Pharmaceutics, 2024) come the findings set out here.

A short description of the series: Concentration of free isoliquiritigenin in saturated aqueous phase by HPLC. Format: physicochemical. The protocol: A total of 100 μL of ISL-LP solution was added to 900 μL of methanol and then subjected to vortex shaking for 10 min to disrupt the liposome structure. Following centrifugation at a speed of 13,000 rpm and a temperature of 4 °C for 10 min, 100 μL of the supernatant was diluted with methanol and then filtered through 0.22 μm membranes. Subsequently, 15 μL of the solution was injected into a high-performance liquid chromatography system (HPLC, Agilent 1100, Santa Clara, CA, USA) to detect the concentration of ISL according to the method previously reported. Before these steps, we quantified the concentration of free isoliquiritigenin in the saturated aqueous phase by HPLC. […] The drug loading (DL) and EE of ISL-LP were calculated according to Equations (1) and (2):EE (%) = (Wloaded/Wadded) × 100%(1) DL (%) = (Wloaded/Wtotal) × 100%(2) where Wloaded represents the amount of ISL loaded, Wadded denotes the weight of ISL added, and Wtotal signifies the weight of liposomes.

As for `O=C(/C=C/c1ccc(O)cc1)c1ccc(O)cc1O` [isoliquiritigenin, Isoliquiritigenin], the “concentration of free isoliquiritigenin in the saturated aqueous phase” value was “below the detection limit”.
